# Assay results: patent publication US11884652B2, “Tetrazole derivatives as TRPA1 inhibitors” (Boehringer Ingelheim International GmbH, priority 2020, dated 2024)
# Experiments:
# [1] = Assay B: Microsomal clearance; assay type: in vitro ADME, human; details: pooled liver microsomes 1 mg/ml, 1 μM compound, NADPH, 37° C.; clearance as % of hepatic blood flow
# Method: Assay B: Microsomal Clearance:
# The metabolic degradation of the test compound is assayed at 37° C. with pooled liver microsomes. The final incubation volume of 100 μl per time point contains TRIS buffer pH 7.6 at RT (0.1 M), magnesium chloride (5 mM), microsomal protein (1 mg/ml) and the test compound at a final concentration of 1 μM.
# Following a short preincubation period at 37° C., the reactions are initiated by addition of beta-nicotinamide adenine dinucleotide phosphate, reduced form (NADPH, 1 mM) and terminated by transferring an aliquot into solvent after different time points (0, 5, 15, 30, 60 min). Additionally, the NADPH-independent degradation is monitored in incubations without NADPH, terminated at the last time point. The [%] remaining test compound after NADPH independent incubation is reflected by the parameter c(control) (metabolic stability). The quenched incubations are pelleted by centrifugation (10000 g, 5 min).
# An aliquot of the supernatant is assayed by LC-MS/MS for the amount of parent compound. The half-life (t½ INVITRO) is determined by the slope of the semilogarithmic plot of the concentration-time profile.
# The intrinsic clearance (CL_[…]) is calculated by considering the amount of protein in the incubation: CL_[…] [μl/min/mg protein]=(Ln 2/(half-life [min]*protein content [mg/ml]))*1000 CL_[…]_INVIVO [ml/min/kg]=(CL_[…] [μL/min/mg protein]×MPPGL [mg protein/g liver]×liver factor [g/kg bodyweight])/1000 Qh[%]=CL[ml/min/kg]/hepatic blood flow [ml/min/kg])
# (§1) Hepatocellularity, human: 120×10e6 cells/g liver
# (§2) Liver factor, human: 25.7 g/kg bodyweight
# (§3) Blood flow, human: 21 ml/(min×kg)
# [2] = Assay C: Hepatocyte clearance; assay type: in vitro ADME, human; details: hepatocyte suspension, 1 μM compound, 6 h; predicted clearance as % of hepatic blood flow
# Method: Assay C: Hepatocyte Clearance
# The metabolic degradation of the test compound is assayed in a hepatocyte suspension. Hepatocytes (cryopreserved) are incubated in Dulbecco's modified eagle medium (supplemented with 3.5 μg glucagon/500 mL, 2.5 mg insulin/500 mL and 3.75 mg/500 mL hydrocortison) containing 5% or 50% species serum.
# The cells are incubated for six hours (incubator, orbital shaker) and samples ([…]) are taken at 0, 0.5, 1, 2, 4 and 6 hours. Samples are transferred into acetonitrile and pelleted by centrifugation (5 min). The supernatant is transferred to a new 96-deepwell plate, evaporated under nitrogen and resuspended.
# Decline of Parent Compound is Analyzed by HPLC-MS/MS
# CLint is calculated as follows CL_[…]=Dose/AUC=(C0/CD)/(AUD+clast/k)×1000/60. C0: initial concentration in the incubation [μM], CD: cell density of vital cells [10e6 cells/mL], AUD: area under the data [μM×h], clast: concentration of last data point [μM], k: slope of the regression line for parent decline [h−1].
# The calculated in vitro hepatic intrinsic clearance can be scaled up to the intrinsic in vivo hepatic Clearance and used to predict hepatic in vivo blood clearance (CL) by the use of a liver model (well stirred model). CL_[…]_INVIVO [ml/min/kg]=(CL_[…] [μL/min/10e6 cells]×hepatocellularity [10e6 cells/g liver]×liver factor [g/kg bodyweight])/1000 CL[ml/min/kg]=CL_[…]_INVIVO [ml/min/kg]×hepatic blood flow [ml/min/kg]/(CL_[…]_INVIVO [ml/min/kg]+hepatic blood flow [ml/min/kg]) Qh[%]=CL[ml/min/kg]/hepatic blood flow [ml/min/kg])
# as §1, §2, §3
# human TRPA1 ion channel = molecular target: T1, human TRPA1 ion channel (Homo sapiens, UniProt O75762); experiment: Assay A: TRPA1 assay (FLIPR, AITC-induced calcium, HEK293 cells); assay type: cell-based; details: read-out: hTRPA1 IC50
# T1 construct: host or cells: HEK293
# Method: A human HEK293 cell line over-expressing the human TRPA1 ion channel (Perkin Elmer, Product No. AX-004-PCL) is used as a test system for compound efficacy and potency. Compound activity is determined by measuring the effect of compounds on intracellular calcium concentration induced by AITC (Allylisothiocyanat) agonism in a FLIPRtetra system (Molecular Devices).
# The cells are obtained as frozen cells in cryo-vials and stored until use at −150° C. Cells are grown in culture medium (MEM/EBSS medium with 10% FCS and 0.4 mg/ML Geneticin). […] For sub-culturing cells are detached from flasks by Versene. At the day before the assay, cells are detached, washed twice with medium (MEM/EBSS medium with 10% FCS) and 20000 cells in 20 μl/well are seeded to Poly D-Lysin biocoated 384-well plates (black, clear bottom, Cat. 356697) from Corning. Plates are incubated for 24 hours at 37° C./5% CO2 before use in the assay.
# The test compounds are dissolved in 100% DMSO at a concentration of 10 mM and in a first step diluted in DMSO to a concentration of 5 mM, followed by serial dilution steps in 100% DMSO. Dilution factor and number of dilution steps may vary according to needs. Typically 8 different concentrations by 1:5 dilutions are prepared, further intermediate dilutions (1:20) of the substances are carried out with HBSS/HEPES buffer (1×HEPES, Cat. 14065 from Gibco, 20 mM HEPES, Cat. 83264 from SIGMA, 0.1% BSA Cat. 11926 from Invitrogen, pH 7.4
# At the assay day cells are washed 3× with assay puffer, 20 μL buffer remaining in the wells after washing. 10 μL Ca6 kit (Cat. R8191 MolecularDevices) loading buffer in HBSS/HEPES is added to the cells and the plates are incubated with lid for 120 minutes at 37°/5% CO2. 10 μL of compound or controls in HBSS/HEPES buffer/5% DMSO from the intermediate dilution plate are carefully added to the wells. […] Finally 10 μL of the agonist AITC 50 μM dissolved in HBSS/HEPES buffer/0.05% DMSO (final concentration 10 μM) is added to the wells followed by an additional read on the FLIPRtetra device for 10 minutes. The area under the signal curve (AUC) after AITC addition is used for IC50/% inhibition calculations
# Data Evaluation and Calculation:
# Each assay microtiter plate contains wells with vehicle (1% DMSO) controls instead of compound as controls for AITC induced luminescence (100% CTL; high controls) and wells with vehicle controls without AITC as controls for non-specific changes in luminescence (0% CTL; low controls).
# The analysis of the data is performed by the calculation of the area under signal curve of the individual wells. Based on this values the % value for the measurement of each substance concentration is calculated (AUC(sample)−AUC(low))*100/(AUC(high)−AUC(low)) using MegaLab software (in house development). The IC50 values are calculated from the % control values using MegaLab software. Calculation: [y=(ad)/(1+(x/c)^b)+d], a=low value, d=high value; x=conc M; c=IC50 M; b=hill; y=% ctrl
# T1 sequence (O75762 whole entry): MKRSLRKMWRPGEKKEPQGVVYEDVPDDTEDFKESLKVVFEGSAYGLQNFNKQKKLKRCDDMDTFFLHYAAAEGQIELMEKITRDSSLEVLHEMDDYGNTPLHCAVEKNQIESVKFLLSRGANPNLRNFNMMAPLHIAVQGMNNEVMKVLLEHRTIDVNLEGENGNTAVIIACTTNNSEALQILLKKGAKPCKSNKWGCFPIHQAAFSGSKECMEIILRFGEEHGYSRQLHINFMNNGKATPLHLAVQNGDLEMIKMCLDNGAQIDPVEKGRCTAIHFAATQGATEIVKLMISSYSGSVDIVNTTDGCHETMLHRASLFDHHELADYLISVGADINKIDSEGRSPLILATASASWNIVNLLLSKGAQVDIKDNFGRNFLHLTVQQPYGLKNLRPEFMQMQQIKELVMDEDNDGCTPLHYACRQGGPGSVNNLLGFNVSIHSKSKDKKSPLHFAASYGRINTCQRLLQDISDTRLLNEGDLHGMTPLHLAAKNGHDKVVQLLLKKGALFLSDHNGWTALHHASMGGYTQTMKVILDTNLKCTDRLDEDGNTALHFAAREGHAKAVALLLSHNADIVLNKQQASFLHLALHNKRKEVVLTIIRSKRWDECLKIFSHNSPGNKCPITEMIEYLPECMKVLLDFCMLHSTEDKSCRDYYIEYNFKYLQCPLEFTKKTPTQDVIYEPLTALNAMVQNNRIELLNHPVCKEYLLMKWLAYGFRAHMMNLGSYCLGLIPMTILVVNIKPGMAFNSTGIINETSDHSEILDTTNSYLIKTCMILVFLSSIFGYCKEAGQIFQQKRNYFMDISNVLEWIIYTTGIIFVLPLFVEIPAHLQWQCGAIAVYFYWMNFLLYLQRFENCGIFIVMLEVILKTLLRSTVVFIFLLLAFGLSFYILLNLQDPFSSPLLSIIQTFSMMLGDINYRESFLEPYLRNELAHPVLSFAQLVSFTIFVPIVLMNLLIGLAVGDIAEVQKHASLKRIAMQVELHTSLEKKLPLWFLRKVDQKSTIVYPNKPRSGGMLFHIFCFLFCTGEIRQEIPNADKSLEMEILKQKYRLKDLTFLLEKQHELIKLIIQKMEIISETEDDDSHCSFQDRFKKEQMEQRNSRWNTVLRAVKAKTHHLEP
human LM [% Qh] [1] [% Qh],human Hepatocytes [% Qh] [2] [% Qh],IC50 (human TRPA1 ion channel) [nM],Compound
<23,<4,40,"Cn1c(=O)c(C(N)=O)cn(Cc2nnn(C[C@H](O)c3ccc(Cl)cc3)n2)c1=O [Example 1, 1-({2-[(2R)-2-(4-chlorophenyl)-2-hydroxyethyl]-2H-1,2,3,4-tetrazol-5-yl}methyl)-3-methyl-2,4-dioxo-1,2,3,4-tetrahydropyrimidine-5-carboxamide]"
<23,13,18,Cn1c(=O)c(C(N)=O)cn(Cc2nnn(C[C@H](O)c3cc4ccccc4s3)n2)c1=O [Example 2]
26,27,18,Cn1c(=O)c(C(N)=O)cn(Cc2nnn(C[C@H](O)c3cc4ccc(F)cc4s3)n2)c1=O [Example 3]
<23,8,34,Cn1c(=O)c(C(N)=O)cn(Cc2nnn(C[C@H](O)c3ccc4oc(F)cc4c3)n2)c1=O [Example 4]
<23,43,26,Cn1c(=O)c(C(N)=O)cn(Cc2nnn(C[C@H](O)c3cc(Cl)c(Cl)s3)n2)c1=O [Example 5]
<23,15,42,Cn1c(=O)c(C(N)=O)cn(Cc2nnn(C[C@H](O)c3cc4cc(Cl)ccc4o3)n2)c1=O [Example 6]
<23,<4,56,Cn1c(=O)c(C(N)=O)cn(Cc2nnn(C[C@H](O)c3ccc(Br)cc3)n2)c1=O [Example 7]
<23,6,59,Cn1c(=O)c(C(N)=O)cn(Cc2nnn(C[C@H](O)c3cc4cc(F)ccc4o3)n2)c1=O [Example 8]
<23,7,72,Cn1c(=O)c(C(N)=O)cn(Cc2nnn(C[C@H](O)c3cc4ccccc4o3)n2)c1=O [Example 9]
<23,15,92,Cn1c(=O)c(C(N)=O)cn(Cc2nnn(C[C@H](O)c3ccc(Cl)s3)n2)c1=O [Example 10]
<23,<4,105,Cn1c(=O)c(C(N)=O)cn(Cc2nnn(C[C@H](O)c3ccc4c(c3)OCO4)n2)c1=O [Example 11]
<23,16,110,Cn1c(=O)c(C(N)=O)cn(Cc2nnn(C[C@H](O)c3cc4ccc(F)cc4o3)n2)c1=O [Example 12]
<23,<4,124,Cc1ccc([C@@H](O)Cn2nnc(Cn3cc(C(N)=O)c(=O)n(C)c3=O)n2)cc1 [Example 13]
<23,4,156,Cn1c(=O)c(C(N)=O)cn(Cc2nnn(C[C@H](O)c3ccc(C#N)s3)n2)c1=O [Example 14]
<23,14,198,Cn1c(=O)c(C(N)=O)cn(Cc2nnn(C[C@H](O)c3cc4cccc(F)c4o3)n2)c1=O [Example 15]
<23,<4,160,COc1ccc([C@@H](O)Cn2nnc(Cn3cc(C(N)=O)c(=O)n(C)c3=O)n2)cc1 [Example 16]
42,49,213,CC(C)Cn1c(=O)c(C(N)=O)cn(Cc2nnn(C[C@H](O)c3ccc(Cl)cc3)n2)c1=O [Example 17]
38,39,33,NC(=O)c1cn(Cc2nnn(C[C@H](O)c3ccc(Cl)cc3)n2)c(=O)n(C2CCC2)c1=O [Example 18]
<23,5,62,CCn1c(=O)c(C(N)=O)cn(Cc2nnn(C[C@H](O)c3ccc(Cl)cc3)n2)c1=O [Example 19]
<23,15,64,NC(=O)c1cn(Cc2nnn(C[C@H](O)c3ccc(Cl)cc3)n2)c(=O)n(CC2CC2)c1=O [Example 20]
<23,15,258,COCCn1c(=O)c(C(N)=O)cn(Cc2nnn(C[C@H](O)c3ccc(Cl)cc3)n2)c1=O [Example 21]
<23,25,23,"COCCNC(=O)c1cn(Cc2nnn(C[C@H](O)c3ccc(Cl)cc3)n2)c(=O)n(C)c1=O [Example 22, 1-({2-[(2R)-2-(4-chlorophenyl)-2-hydroxyethyl]-2H-1,2,3,4-tetrazol-5-yl}methyl)-N-(2-methoxyethyl)-3-methyl-2,4-dioxo-1,2,3,4-tetrahydropyrimidine-5-carboxamide]"
<23,15,39,Cn1c(=O)c(C(=O)NCC(F)F)cn(Cc2nnn(C[C@H](O)c3ccc(Cl)cc3)n2)c1=O [Example 23]
38,28,39,Cn1c(=O)c(C(=O)NCCN2CCOCC2)cn(Cc2nnn(C[C@H](O)c3ccc(Cl)cc3)n2)c1=O [Example 24]
